These results are taken from KR20200058863A, “루테인 장용성 고체분산체를 유효성분으로 함유하는 위산보호용 조성물 및 이를 포함하는 경구용 제제” (중앙대학교 산학협력단, priority 2018, dated 2020).

Where two headings read alike, the source gives them in different places.

The conditions of data set [1]: intestinal condition pH 6.8, 37 ± 0.5 ℃, 100 rpm.
Data set [2] in a line: In vitro dissolution in artificial gastric/intestinal fluid and successive pH (USP 29 apparatus 2). The format is physicochemical. The note with it: artificial gastric fluid pH 1.2, 120 min.
The nature of data set [3]: physchem. Conditions: ph 1.2 solution.
Data set [4] in a line: physchem. The note with it: artificial gastric fluid, pH 1.2.
Data set [5] can be described thus: physchem. The note with it: artificial gastric fluid, pH 1.2. This is another data set of the same source.
Data set [6] can be described thus: PXRD crystallinity of lutein and solid dispersions. The class given is physicochemical. The note with it: 2θ 5° to 50°, room temperature.
The conditions of data set [7]: intestinal fluid, pH 6.8; spectra over 24 h.

Consider `CC1=C[C@H](O)CC(C)(C)[C@H]1/C=C/C(C)=C/C=C/C(C)=C/C=C/C=C(C)/C=C/C=C(C)/C=C/C1=C(C)C[C@@H](O)CC1(C)C` [루테인], for which the change of lutein result in data set [1] is on record as “루테인 변화가 나타나지 않았다”. In addition, the acid resistance entry in data set [2] (37 ± 0.5 ℃, 100 rpm) is listed as “산저항성을 나타내었으며”. Also, the “lutein detected in dissolution medium” value in data set [2] (low solubility) is recorded as “검출되지 않았다”. Moreover, in the data set “physchem [3]”, the amount remaining – broadly, what is left of the initial amount, in per cent – at 12 h is 14.7%. The same molecule returned a degraded at 2 h in the data set “physchem [4]” of 70%. In addition, in “physchem [5]”, the degraded at 24 h was around 50%. For the same molecule, for the setting “pH 1.2, 0 h”, the lutein content was determined as 10.31 ± 0.29 mg and the lutein ratio came to 100%. Besides, the lutein content (pH 1.2, after 12 h) is 1.51 ± 0.03 mg. The “crystallinity (PXRD peaks)” value in data set [6] is recorded as “다양한 특유의 피크를 갖는 고도의 결정구조”. Moreover, the “change of lutein absorbance spectrum” value in data set [7] is “유의한 변화가 확인되지 않았다”.
